Consider eight molecules from patent publication US8912213B2, “Synthesis and use of dual tyrosyl-DNA phosphodiesterase I (TDP1)- topoisomerase I (TOP1) inhibitors” (Purdue Research Foundation, priority 2012, dated 2014).

Test [1] relates to HOP-62. The test is described as follows: NCI screen cytotoxicity, lung HOP-62. The class given is cell-based. The note with it: Homo sapiens, 50% growth inhibition.
The subject of test [2] is SN12C. Description: NCI screen cytotoxicity, renal SN12C. The class given is cell-based. The note with it: Homo sapiens, 50% growth inhibition.
Test [3] deals with DU-145. Description: NCI screen cytotoxicity, prostate DU-145. It is filed as cell-based. To be noted: Homo sapiens, DU-145, read-out: Cytotoxicity (GI50 in μM) prostate DU-145; 50% growth inhibition.
The test system of test [4] is MDA-MB-435. Description: NCI screen cytotoxicity, breast MDA-MB-435. The class given is cell-based. The note with it: Homo sapiens, MDA-MB-435, read-out: Cytotoxicity (GI50 in μM) breast MDA-MB-435; 50% growth inhibition.
Test [5] concerns all human cancer cell lines successfully tested. The test is described as follows: NCI screen, mean graph midpoint (MGM) for growth inhibition. To be noted: for GI50: Homo sapiens.
For test [6], the system named is SF-539. Description: NCI screen cytotoxicity, CNS SF-539. The class given is cell-based. The note with it: Homo sapiens, read-out: Cytotoxicity (GI50 in μM) CNS SF-539; 50% growth inhibition.
Test [7] has as its system OVCAR-3. Description: NCI screen cytotoxicity, ovarian OVCAR-3. To be noted: Homo sapiens, OVCAR-3, read-out: Cytotoxicity (GI50 in μM) ovarian OVCAR-3.
The test system of test [8] is UACC-62. The test is described as follows: NCI screen cytotoxicity, melanoma UACC-62. To be noted: Homo sapiens, 50% growth inhibition. The class given is cell-based.
Test [9] deals with T1, Tdp1 (Homo sapiens (Human), UniProt Q9NUW8). Description: Gel-based assay measuring the inhibition of recombinant Tdp1.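 Also: 5′-32P-labeled single-stranded DNA with 3′-phosphotyrosine incubated with 5 pM enzyme for 15 min at room temperature, inhibition seen as loss of 3′-phosphate product band by densitometry.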 It is filed as biochemical.
T1 sequence (Q9NUW8 whole entry): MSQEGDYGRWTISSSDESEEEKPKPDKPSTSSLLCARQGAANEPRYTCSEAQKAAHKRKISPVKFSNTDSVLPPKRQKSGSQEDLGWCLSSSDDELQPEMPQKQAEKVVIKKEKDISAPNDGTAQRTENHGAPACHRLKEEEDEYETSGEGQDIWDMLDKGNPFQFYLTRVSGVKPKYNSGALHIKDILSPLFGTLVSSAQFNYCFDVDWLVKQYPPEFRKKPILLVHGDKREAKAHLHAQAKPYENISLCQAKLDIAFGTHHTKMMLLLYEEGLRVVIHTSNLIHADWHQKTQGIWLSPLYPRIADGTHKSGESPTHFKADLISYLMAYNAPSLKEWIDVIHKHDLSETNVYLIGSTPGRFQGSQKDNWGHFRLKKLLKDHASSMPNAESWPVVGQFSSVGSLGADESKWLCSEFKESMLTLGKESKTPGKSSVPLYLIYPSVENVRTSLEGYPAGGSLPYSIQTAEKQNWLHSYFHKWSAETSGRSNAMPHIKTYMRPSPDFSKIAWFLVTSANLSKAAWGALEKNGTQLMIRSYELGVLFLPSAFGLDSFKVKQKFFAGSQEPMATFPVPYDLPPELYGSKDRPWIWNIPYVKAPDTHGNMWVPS
Protocol: Tdp1 inhibitory activity was measured by the drug's ability to inhibit the hydrolysis of the phosphodiester linkage between tyrosine and the 3′-end of the DNA substrate, and to prevent the generation of an oligonucleotide with a free 3′-phosphate (N14P). Therefore, the disappearance of the gel band for N14P indicated Tdp1 inhibition.
Gel-Based Assay Measuring the Inhibition of Recombinant Tdp1. A 5′-[^32P]-labeled single-stranded DNA oligonucleotide containing a 3′-phosphotyrosine (N14Y) was generated as described by Dexheimer et al. The DNA substrate was then incubated with 5 pM recombinant Tdp1 in the absence or presence of inhibitor for 15 min at room temperature in a buffer containing 50 mM Tris HCl, pH 7.5, 80 mM KCl, 2 mM EDTA, 1 mM DTT, 40 μg/ml BSA and 0.01% Tween-20. […] Gel images were scanned using a Typhoon 8600 (GE Healthcare) and densitometric analyses were performed using the ImageQuant software (GE Healthcare).
The test system of test [10] is HCT-116. Description: NCI screen cytotoxicity, colon HCT-116. It is filed as cell-based. The note with it: Homo sapiens, 50% growth inhibition.
Test [11] concerns the target Human recombinant Top1 (Homo sapiens (Human), UniProt P11387). The test is described as follows: Topoisomerase I-mediated DNA cleavage reactions.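 As to all read-outs here: 3′-end radiolabeled DNA substrate (about 2 nM) incubated with recombinant Top1 and compound for 20 min at 25 °C, cleavage products resolved by denaturing PAGE and phosphoimaging.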 The class given is biochemical. To be noted: for Top1 (compound-induced DNA cleavage, semiquantitative scale): series (B), relative to 1 μM camptothecin (90) or MJ-III-65 (91); for Top1 inhibition (semiquantitative scale): series (A), relative to 1 μM camptothecin.
Protocol: Additionally, all indenoisoquinoline sulfonates and sulfonamides were tested for Top1 cleavage complex poisoning in a Top1-mediated DNA cleavage assay.
Topoisomerase I-Mediated DNA Cleavage Reactions. Human recombinant Top1 was purified from baculovirus as previously described. DNA cleavage reactions were prepared as previously reported with the exception of the DNA substrate. […] Unincorporated [^32P]dGTP was removed using mini Quick Spin DNA columns (Roche, Indianapolis, Ind.), and the eluate containing the 3′-end-labeled DNA substrate was collected. Approximately 2 nM radiolabeled DNA substrate was incubated with recombinant Top1 in 20 μL of reaction buffer [10 mM Tris-HCl (pH 7.5), 50 mM KCl, 5 mM MgCl2, 0.1 mM EDTA, and 15 μg/mL BSA] at 25° C. for 20 min in the presence of various concentrations of compounds. The reactions were terminated by adding SDS (0.5% final concentration) followed by the addition of two volumes of loading dye (80% formamide, 10 mM sodium hydroxide, 1 mM sodium EDTA, 0.1% xylene cyanol, and 0.1% bromphenol blue). Aliquots of each reaction mixture were subjected to 20% denaturing PAGE. Gels were dried and visualized by using a phosphoimager and ImageQuant software (Molecular Dynamics).
Topoisomerase I-Mediated DNA Cleavage Reactions. Top1 reactions were performed as recently described. […] The reactions were terminated by adding SDS (0.5% final concentration) followed by the addition of two volumes of loading dye (80% formamide, 10 mM sodium hydroxide, 1 mM sodium EDTA, 0.1% xylene cyanol, and 0.1% bromphenol blue). Reactions were subjected to 20% denaturing PAGE. Gels were dried and visualized by using a Typhoon 8600 and ImageQuant software (Molecular Dynamics).

Test [12] concerns the target T1, Tdp1. Description: Surface plasmon resonance analysis. It is filed as binding. To be noted: immobilized Tdp1. In general terms: SPR reads the build-up and loss of mass on a sensor chip optically.
Protocol: Surface Plasmon Resonance Analysis. Binding experiments were performed on a Biacore T100 instrument (GE, Piscataway N.J.). Tdp1 was amine coupled to a CM5 sensor chip (GE Healthcare, Piscataway N.J.). […] (EDC), N-hydroxysuccinimide (NHS) and ethanolamine were purchased from GE Heathcare, (Piscataway N.J.). Neutravidin was obtained from Pierce. In order to protect the amine groups within the active site from modification, Tdp1 was bound with a 14-base oligonucleotide before coupling to the surface. […] The CM5 chip surface was activated for 7 min. with 0.1 M NHS and 0.4 M EDC at a flow rate of 20 μL/min and Tdp1-oligonucleotide mixture was injected until approximately 4000 RU's was attached. Activated amine groups were quenched with an injection of 1 M solution of ethanolamine pH 8.0 for 7 min. Any bound oligonucleotide was removed by washing the surface with 1 M NaCl. A reference surface was prepared in the same manner without coupling of Tdp1. […] Following compound injections, the surface was regenerated with a 30 second injection 1 M NaCl, a 30 second injection of 50% DMSO (v/v) and a 30 second running buffer injection. Each cycle of compound injection was followed by buffer cycle for referencing purposes. A DMSO calibration curve was included to correct for refractive index mismatches between the running buffer and compound dilution series.
Surface Plasmon Resonance Analysis. […]
In test [13] the target is endogenous human Tdp1 in whole cell extract (Homo sapiens (Human), UniProt Q9NUW8). The test is described as follows: Gel-based assay measuring the inhibition of endogenous human Tdp1 in whole cell extract. It is filed as biochemical. The note with it: human Tdp1 in whole cell extract (WCE). The procedure: Gel-Based Assay Measuring the Inhibition of Endogenous Human Tdp1 in Whole Cell Extract. 1×10^7 DT40 knockout cells for chicken Tdp1 and complemented with human Tdp1 were collected, washed and centrifuged. Cell pellet was then resuspended with 100 μL of CellLytic M Cell Lysis Reagent (SIGMA-Aldrich C2978). After 15 min, the lysate was centrifuged at a 12,000 g for 10 min and the supernatant was transferred to a new tube. Protein concentration was determined using a nanodrop spectrophotometer (Invitrogen) and the whole cell extract was stored at −80° C. […] Reactions were then treated similarly to the recombinant enzyme containing samples (see section above).
Chain of endogenous human Tdp1 in whole cell extract (Q9NUW8 whole entry): as above
All compounds were first tested in gel based assays for Tdp1 inhibition using recombinant (rec.) human Tdp1 and only the active compounds were tested for human Tdp1 inhibition in whole cell extract (WCE). […] was included in all experiments as positive control.

The target in test [14] is T1, Tdp1. The note with it: known inhibitor; cited from earlier work.

Structures are written as SMILES. Read-outs that look alike come from different tables or passages of the source. A value given as a limit tells only on which side of the number the result lay.

Chain of Human recombinant Top1 (P11387 whole entry): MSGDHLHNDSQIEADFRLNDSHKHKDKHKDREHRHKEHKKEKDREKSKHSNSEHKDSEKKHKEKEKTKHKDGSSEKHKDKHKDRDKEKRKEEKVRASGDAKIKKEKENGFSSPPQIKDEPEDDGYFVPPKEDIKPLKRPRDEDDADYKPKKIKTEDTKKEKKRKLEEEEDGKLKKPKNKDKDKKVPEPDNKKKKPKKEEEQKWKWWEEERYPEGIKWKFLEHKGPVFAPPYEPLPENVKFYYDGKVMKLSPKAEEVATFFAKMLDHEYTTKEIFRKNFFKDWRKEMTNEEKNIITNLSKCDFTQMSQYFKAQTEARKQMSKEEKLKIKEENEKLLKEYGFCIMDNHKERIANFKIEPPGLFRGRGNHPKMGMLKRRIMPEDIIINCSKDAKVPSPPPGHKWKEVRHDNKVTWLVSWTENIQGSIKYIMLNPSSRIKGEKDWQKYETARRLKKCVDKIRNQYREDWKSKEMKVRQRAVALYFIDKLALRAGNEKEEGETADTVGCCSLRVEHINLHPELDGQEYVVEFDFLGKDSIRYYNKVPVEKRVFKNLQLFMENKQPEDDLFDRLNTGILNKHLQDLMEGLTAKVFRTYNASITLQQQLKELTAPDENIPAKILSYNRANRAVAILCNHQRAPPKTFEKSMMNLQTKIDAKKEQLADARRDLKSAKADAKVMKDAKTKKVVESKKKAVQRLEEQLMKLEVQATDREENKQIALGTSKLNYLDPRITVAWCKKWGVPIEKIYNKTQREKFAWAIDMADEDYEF

Consider `CCOC(=O)CNc1ccc2c3c(n(CCCN)c(=O)c2c1)-c1ccccc1C3=O.Cl` [Compound 40 of (B), Ethyl 2-[(6-(3-Aminopropyl)-5,11-dioxo-6,11-dihydro-5H-indeno[1,2-c]isoquinolin-3-yl)amino]acetate Hydrochloride], for which the GI50 in test [1] was 0.93 µM; in [2], 1.75 µM; in [3], 1.68 µM; in [4], 3.05 µM; in test [5] (read-out: MGM (μM)) it was 1.69 µM; in test [6] it was 8.91 µM. Moreover, the GI50 in test [7] was 3.12 µM; in test [8], 2.25 µM; in test [10], 0.44 µM. Besides, the “Tdp1 inhibitory activity (in words)” value in test [9] was “active”. Besides, the IC50 in test [9] (read-out: Tdp1 (μM) IC50) stood at 11 ± 5 µM.

Turning to `Cl.NCCCn1c2c(c3ccc(NCC(=O)O)cc3c1=O)C(=O)c1ccccc1-2` [Compound 43 of (B), 2-((6-(3-Aminopropyl)-5,11-dioxo-6,11-dihydro-5H-indeno[1,2-c]isoquinolin-3-yl)amino)acetic Acid Hydrochloride], the GI50 in test [1] turned out to be 0.65 µM; in test [2] it was 0.49 µM; in test [3] it was 1.51 µM; in test [4] it was 1.14 µM; in test [5] (read-out: MGM (μM)), 0.87 ± 0.014 µM; in test [6], 1.79 µM. Also, the values for the GI50 in [7], in test [8] and in test [10] were 1.6 µM, 0.72 µM and 0.33 µM, respectively. In addition, the IC50 in test [9] (series (B), determined by quadruplicate, read-out: Tdp1 (μM) IC50) amounted to 5 ± 1.4 µM. In addition, the “Top1 (compound-induced DNA cleavage, semiquantitative scale)” value in test [11] was found to be 0.

As for `COc1ccc2c(c1)-c1c(c3ccc([N+](=O)[O-])cc3c(=O)n1CCCN)C2=O.Cl` [Compound 51 of (B), 6-(3-Aminopropyl)-5,6-dihydro-8-methoxy-3-nitro-5,11-dioxo-11H-indeno[1,2-c]isoquinoline Hydrochloride], the GI50 turned out to be 0.15 µM in [2]; 0.18 µM in test [3]; 0.58 µM in test [4]; 0.17 ± 0.017 µM in test [5] (read-out: MGM (μM)); 0.61 µM in test [6]; 0.54 µM in [7]. Moreover, in test [10], the GI50 was determined as 0.06 µM. The IC50 in test [9] (read-out: Tdp1 (μM) IC50) turned out to be 15 ± 3 µM. Further, in test [11], the “Top1 (compound-induced DNA cleavage, semiquantitative scale)” value is listed as “++”.

As to `COc1ccc2c(c1)-c1c(c3ccc([N+](=O)[O-])cc3c(=O)n1CCCn1ccnc1)C2=O` [Compound 52 of (B), 6-(3-(1H-Imidazol-1-yl)propyl)-8-methoxy-3-nitro-5H-indeno[1,2-c]isoquinoline-5,11(6H)-dione], the GI50 in test [1] is under 0.01 µM; in test [2], under 0.01 µM; in test [3], under 0.01 µM; in test [4], 0.03 µM; in [5] (read-out: MGM (μM)), 0.02 µM; in test [7], 0.03 µM. The GI50 in test [8] and in test [10] was under 0.01 µM each time. In addition, the “MGM” value in test [5] (series (B), mean graph midpoint GI50, ± standard error where two determinations, listed as 52) came out at 0.02 ± 0.0006 µM. In test [9], the “Tdp1 (IC50, semiquantitative scale)” value is “(+)”. Moreover, the “Tdp1 inhibitory activity (in words)” value in test [9] was “very weak or inactive”. Moreover, in [11] (100 μM), the “suppression of DNA cleavage at high drug concentration” value is listed as “slight suppression”. For the same molecule, the “Top1 (compound-induced DNA cleavage, semiquantitative scale)” value in [11] is on record as “+++”.

`NCCCn1c2c(c3ccc(N)cc3c1=O)C(=O)c1ccccc1-2` [Compound 62 of (B)]: the GI50 stood at 0.27 µM in [1]; 0.23 µM in [2]; 0.12 µM in test [3]; 0.23 µM in test [4]; 0.16 µM in test [5] (read-out: MGM (μM)); 0.34 µM in test [6]. Moreover, the values for the GI50 in test [7], in test [8] and in test [10] were 0.13 µM, 0.3 µM and 0.18 µM, respectively.

As to `Cl.NCCCn1c2c(c3ccccc3c1=O)C(=O)c1ccccc1-2` [Compound 70 of (A)], the “binding to Tdp1 by surface plasmon resonance” value in test [12] is on record as “direct binding”. In addition, the “Top1 inhibition (semiquantitative scale)” value in [11] is “+++ (between 75% and 95% activity)”.

Turning to `O=C1c2ccccc2-c2c1c1ccccc1c(=O)n2CCCNCCCNCCCn1c2c(c3ccccc3c1=O)C(=O)c1ccccc1-2` [Compound 145 of (A), Bis-1,3-{(5,6-dihydro-5,11-diketo-11 H-indeno[1,2-c]isoquinoline)-6-propyl-amino}propane Bis(trifluoroacetate)], the half-maximal inhibitory concentration (IC50) in [13] worked out at 1900 nM; in test [9], 1.5 µM. Also, the GI50 in test [5] (read-out: MGM GI50) is 0.394 µM. Moreover, the “Top1 inhibition (semiquantitative scale)” value in [11] is “++++”.

For the molecule `[O]=[V]([O-])([O-])[O-]` [vanadate], in test [14], the “Tdp1 inhibition (in words)” value was “inhibition at millimolar concentrations”.

Broadly, the IC50 is the concentration needed to halve the response being measured.
